Assay results taken from paper PMC10095932 (Molecules, 2023).
Where a SMILES comes first, the peptide text is derived from it. Bridges are numbered along the chain shown (N, C = ends).

Columns and labels:
NEP = molecular target: T1, NEP (Homo sapiens, UniProt P08473); assay: Stability to neutral endopeptidase 24.11 (NEP); format: in vitro ADME; conditions: 3 h; 100 μL of 500 μM peptide, 500 ng NEP, 100 mM Tris.HCl, 150 mM NaCl, pH 7.4, 37 °C, RP-HPLC peak height
T1 construct: purchased R&D Systems (Minneapolis, MN, USA)
T1 sequence (P08473 whole entry): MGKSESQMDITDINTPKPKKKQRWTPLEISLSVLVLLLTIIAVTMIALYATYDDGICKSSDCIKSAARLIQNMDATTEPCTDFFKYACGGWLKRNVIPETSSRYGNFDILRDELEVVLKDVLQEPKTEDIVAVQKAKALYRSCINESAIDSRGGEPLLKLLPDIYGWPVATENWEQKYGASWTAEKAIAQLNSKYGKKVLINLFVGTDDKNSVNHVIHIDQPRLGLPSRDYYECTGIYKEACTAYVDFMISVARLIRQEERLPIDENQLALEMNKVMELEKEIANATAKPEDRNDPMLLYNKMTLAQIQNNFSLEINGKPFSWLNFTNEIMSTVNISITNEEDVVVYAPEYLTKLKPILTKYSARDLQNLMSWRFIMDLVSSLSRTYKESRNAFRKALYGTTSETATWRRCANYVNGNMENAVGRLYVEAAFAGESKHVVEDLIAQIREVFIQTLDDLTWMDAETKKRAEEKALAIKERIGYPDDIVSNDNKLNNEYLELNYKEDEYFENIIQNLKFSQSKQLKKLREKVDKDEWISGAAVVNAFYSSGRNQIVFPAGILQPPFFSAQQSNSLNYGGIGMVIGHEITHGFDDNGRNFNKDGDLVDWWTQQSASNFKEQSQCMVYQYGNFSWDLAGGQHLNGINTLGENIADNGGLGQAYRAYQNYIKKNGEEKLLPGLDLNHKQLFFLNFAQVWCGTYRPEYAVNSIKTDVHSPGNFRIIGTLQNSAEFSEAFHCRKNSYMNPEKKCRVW
Description: NEP and plasmin stability: About 100 μL of 500 μM peptide was incubated with 500 ng NEP (activity 400 pmol min^−1 μg^−1) or 10 μg plasmin (0.51 U mg^−1, 0.51 μmol min^−1 mg^−1) in 100 mM Tris.HCl and 150 mM NaCl (pH 7.4) at 37 °C. Then, 50 μL aliquots were removed at designated times, quenched by heating to 100 °C for 4 min, and stored at −20 °C until subjected to RP-HPLC analysis.

rat NPR-A = molecular target: T2, rat NPR-A (Rattus norvegicus, UniProt P18910); assay: cGMP ALPHAscreen, cGMP production in PC12 cells; format: cell-based
T2 construct: endogenous in cells; host or cells: rat PC12 cells
T2 sequence (P18910 29-1057): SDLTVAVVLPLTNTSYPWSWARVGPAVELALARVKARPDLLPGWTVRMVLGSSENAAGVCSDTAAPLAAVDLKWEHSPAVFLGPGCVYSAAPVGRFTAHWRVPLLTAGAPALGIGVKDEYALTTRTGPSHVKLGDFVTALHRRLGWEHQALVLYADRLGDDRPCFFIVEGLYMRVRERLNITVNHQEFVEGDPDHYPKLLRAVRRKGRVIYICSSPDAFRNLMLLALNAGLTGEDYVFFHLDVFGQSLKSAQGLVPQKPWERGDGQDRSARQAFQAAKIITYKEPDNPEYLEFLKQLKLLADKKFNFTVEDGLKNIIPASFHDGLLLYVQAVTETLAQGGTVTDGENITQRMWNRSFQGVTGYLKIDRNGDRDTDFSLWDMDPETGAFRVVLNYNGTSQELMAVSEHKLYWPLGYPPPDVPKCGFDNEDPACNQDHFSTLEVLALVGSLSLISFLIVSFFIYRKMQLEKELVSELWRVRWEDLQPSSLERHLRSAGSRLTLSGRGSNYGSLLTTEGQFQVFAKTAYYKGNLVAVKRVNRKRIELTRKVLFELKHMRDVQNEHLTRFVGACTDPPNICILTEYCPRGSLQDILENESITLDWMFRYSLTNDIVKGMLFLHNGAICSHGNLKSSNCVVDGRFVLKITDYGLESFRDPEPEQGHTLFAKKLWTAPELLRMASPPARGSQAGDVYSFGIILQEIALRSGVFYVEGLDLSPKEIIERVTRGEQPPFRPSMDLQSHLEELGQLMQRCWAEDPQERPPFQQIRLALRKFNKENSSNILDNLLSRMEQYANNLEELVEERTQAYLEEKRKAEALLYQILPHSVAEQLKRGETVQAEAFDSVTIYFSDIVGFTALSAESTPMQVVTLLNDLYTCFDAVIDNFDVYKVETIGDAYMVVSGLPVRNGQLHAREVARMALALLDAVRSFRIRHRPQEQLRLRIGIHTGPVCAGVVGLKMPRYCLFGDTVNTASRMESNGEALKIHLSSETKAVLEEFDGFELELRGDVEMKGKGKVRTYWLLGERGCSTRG
Description: NP activity can be determined by the effectiveness of the peptide to elicit cGMP production through NPR-A. The cGMP ALPHAscreen evaluates the ability of peptides to stimulate cGMP production in cells through a non-radioactive, homogenous, proximity assay which encompasses […]. […] In order to evaluate the potency of TNPa-e at rNPR-A, TNPa-e were evaluated using the cGMP ALPHAscreen in rat PC12 cells.
Cells were cultured at 5% CO2 and 37 °C. HEK 293 cells were cultured in high glucose DMEM (Gibco, Carlsbad, CA, USA) supplemented with 10% FBS, and 1% penicillin/streptomycin. HEK 293 cells were seeded in media lacking penicillin/streptomycin 24 to 48 h pre-transfection. PC12 cells were cultured in high glucose DMEM (Gibco) supplemented with 10% FBS and 1% penicillin/streptomycin.
The cGMP ALPHAscreen was performed using the ALPHAscreen Protein A detection kit and the biotinylated cGMP supplement (Perkin Elmer, Waltham, MA, USA) with rabbit anti-cGMP polyclonal antibody (Biovision, Mountain View, CA, USA). Cells were detached from the flask and the resulting pellet was resuspended in stimulation buffer (HBSS supplemented with 0.1% w/v BSA and 1 mM IBMX at 37 °C). Cells were added to a white 384-well Optiplate (Perkin Elmer, Waltham, USA) to 30,000 cells per well for HEK 293 cells and 10,000 cells per well for PC12 cells. Cells were incubated with different concentrations of test peptides (concentration range of 1 × 10^−5 to 1 × 10^−11 M in stimulation buffer) at 37 °C for 30 min. Cells were lysed with lysis buffer (1 M HEPES, 0.3% Tween-20, 1% BSA in H2O, pH 7.4). Then 5 μL acceptor-bead mix was added to each well under subdued lighting conditions, followed by 5 μL of donor-bead mix. Plates were incubated for ~12 h, slowly shaking at room temperature. After incubation, the ALPHAscreen signal was measured using an EnVision plate reader (Perkin Elmer). The standard curve consisted of cGMP in a concentration range of 1 × 10^−6 to 1 × 10^−12 M. All data points were acquired in triplicate and were analyzed using GraphPad Prism 5.0 software (GraphPad Software, Inc., San Diego, CA, USA).

## CC[C@H](C)[C@H](NC(=O)[C@H](CCCCN)NC(=O)[C@H](CO)NC(=O)[C@H](CC(=O)O)NC(=O)[C@@H](N)CO)C(=O)NCC(=O)N[C@@H](CC(N)=O)C(=O)NCC(=O)N[C@H]1CSSC[C@@H](C(=O)N[C@@H](CC(N)=O)C(=O)N[C@@H](CCCNC(=N)N)C(=O)N[C@H](C(=O)N[C@@H](CCSC)C(=O)N[C@@H](CCC(N)=O)C(=O)N[C@@H](CC(N)=O)C(=O)N2CCC[C@H]2C(=O)N2CCC[C@H]2C(=O)N[C@@H](CCCCN)C(=O)N[C@@H](CCCCN)C(=O)N[C@@H](Cc2ccccc2)C(=O)N[C@@H](CO)C(=O)NCC(=O)N[C@@H](CCC(=O)O)C(=O)O)[C@@H](C)CC)NC(=O)CNC(=O)[C@H](CC(C)C)NC(=O)CNC(=O)[C@H](CO)NC(=O)[C@H](C(C)C)NC(=O)[C@H](CO)NC(=O)CNC(=O)[C@H]([C@@H](C)CC)NC(=O)[C@H](CCCNC(=N)N)NC(=O)[C@H](CC(=O)O)NC(=O)[C@H](CC(C)C)NC(=O)[C@@H]2CCCN2C(=O)[C@H](Cc2ccccc2)NC(=O)CNC(=O)[C@H](Cc2ccccc2)NC1=O [TNPc] (H-SDSKIGNGCFGFPLDRIGSVSGLGCNRIMQNPPKKFSGE-OH; disulfide 9-25)
NEP
  state after incubation with NEP: remained intact
Rat NPR-A; PC12 cells, 30 min at 37 °C, cGMP ALPHAscreen, three to five separate experiments in triplicate, read-out: rNPR-A EC50 (95% CI), potency to stimulate cGMP production
  EC50: 100 nM
Rat NPR-A; rNPR-A (PC12) versus hNPR-A (HEK 293) cGMP potency
  selectivity / difference in potency for rNPR-A over hNPR-A: 100 fold
